Experimental data reported in US20220273590A1, “COMPOUNDS FOR PREVENTION AND TREATMENT OF POST-OPERATIVE COGNITIVE DYSFUNCTION” (ABREXA PHARMACEUTICALS, INC., priority 2019, published 2022).
“And” between values parts separate entries of the source, which are not always exact repeats. Identical values can stand only once. Like-named read-outs stand apart in the source and are kept apart here.

Assays:
[1] = test system: animal model of POCD; assay: Morris Water Maze (MWM) after abdominal surgery; type: in vivo, Wistar rats; settings: chronically treated rats
Experimental: Male Wistar rats (˜350 g) were randomly divided into 4 experimental groups; non-surgery; control abdominal surgery; surgery+acute J147 treatment (7 mg/rat by gavage, 4-5 hours before surgery); surgery+chronic J147 (500 mg/kg food, 1 week before surgery until the end of the study). Timed blood samples were collected. Days 9-11 post surgery, general behavior (Open field: OF) and cognitive performance (Novel Object/Novel Location Recognition: NOR/NLR; Morris Water Maze: MWM) were tested. Day 14, rats were sacrificed and blood and brain tissue were collected for further analyses. (Neuro)inflammation was examined by circulating cytokine levels and microglia activation in the brain.
Abdominal surgery was performed as described previously by Hovens et al., 2014. Rats were anaesthetized using sevoflurane (±2.5% in air/O2=2/1) and received 0.01 mg/kg buprenorphine s.c. A heating blanket was used to preserve body temperature. An incision was made along the linea alba and the intestines were exteriorised. […]
The second day started with a probe trial to assess early spatial memory. […] We measured how often the rat crossed the place of the platform and how much time he spent in the target quadrant. […]

[2] = Pharmacokinetic plasma parameters of J147, oral and intravascular administration; type: in vivo, Adult Wister Rats; settings: for FInf: calculated based on AUCInf; for Flast: calculated based on AUClast
Experimental: Plasma samples obtained during surgery in J147-treated rats and 3 control rats were measured for circulating levels of J147. Results of pharmacokinetic measures of both plasma and brain levels of J147 in rats following oral administration of J147 in basis suspension at 20 mg/kg and also following intravascular administration at 5 mg/kg are shown in Table 2A-C below. When taking the absence of an appropriate peak as zero, mean concentration is 0 ng/ml in controls, 3.103 ng/ml in acutely treated rats and 0.233 ng/ml in chronically treated rats. J147 levels in food were verified as well (467 mg/kg). […] During the first 10 days after surgery and individual housing, rats on the diet ate on average 20±1 g, which was similar to the 20±1 g in surgery with control food and 23±1 g in non-surgery controls, verifying the anticipated intake of 10 mg J147/rat/day and further supporting no preference or aversion for the diet food.

[3] = IV 5 mg/kg, 1 mg/mL in DMSO/PEG 200/Saline 5/70/25, individual animals (1148, 1154, 1156, 1158), 5 mg/kg
[4] = IV 5 mg/kg, individual animals (1148, 1154, 1156, 1158), 5 mg/kg
[5] = PO_A 20 mg/kg, 7 mg/mL in Basis, individual animals (1142, 1144, 1150, 1166), 20 mg/kg
[6] = PO_A 20 mg/kg, individual animals (1142, 1144, 1150, 1166), 20 mg/kg
[7] = Wistar, rat, plasma, iv, 5 mg/kg, IV 5 mg/kg, Mean of 4 animals
[8] = Wistar, rat, plasma, po, 20 mg/kg, PO_B (oral, Basis), Mean

COc1cccc(/C=N/N(C(=O)C(F)(F)F)c2ccc(C)cc2C)c1 [J147]
spatial and reversal learning (MWM), effect of treatment [1]: not affected | spatial memory in the MWM [1]: significantly improved spatial memory | C0 [2, 3]: 4706 ng/mL and 384 ng/mL and 1572 ng/mL and 2509 ng/mL | Cl_obs [2, 3]: 90.2 mL/min/kg and 98.9 mL/min/kg and 107 mL/min/kg | Tmax [2, 3]: 4.98 min and 15 min | t1/2 [2, 3]: 64.8 min and 57.8 min and 51.1 min | AUC_% Ex Trap ([2]; IV 5 mg/kg, Mean of 4 animals): 1.58% | Cl_obs ([2]; IV 5 mg/kg, Mean of 4 animals): 77.4 mL/min/kg | vss_obs ([2]; IV 5 mg/kg, Mean of 4 animals): 5.18 L/kg | AUCInf [2, 4]: 842 ng·h/mL and 631 ng·h/mL and 781 ng·h/mL | AUC_% Ex Trap [2, 4]: 1.14% and 2.31% and 1.89% and 0.979% | MRT [2, 4]: 55.6 min and 44.1 min and 34.3 min | vss_obs [2, 4]: 3.39 L/kg and 6.41 L/kg and 6.82 L/kg and 4.07 L/kg | AUClast ([2]; IV 5 mg/kg, last time point 6 h, Mean of 4 animals): 782 ng·mL·h | AUClast ([2]; IV 5 mg/kg, last time point 6 h, individual animals (1148, 1154, 1156, 1158), 5 mg/kg): 913 ng·mL·h and 823 ng·mL·h and 619 ng·mL·h and 774 ng·mL·h | Cmax [2, 5]: 29.0 ng/mL and 39.9 ng/mL and 36.5 ng/mL and 69.2 ng/mL | t1/2 [2, 5]: 96.6 min and 70.8 min | AUC_% Ex Trap ([2]; PO_A 20 mg/kg, Mean): 7.60% | FInf ([2]; PO_A 20 mg/kg, Mean): 4.29% | FInf [2, 6]: 2.64% and 2.72% and 7.50% | Flast ([2]; PO_A 20 mg/kg, Mean): 3.61% | Flast [2, 6]: 2.45% and 2.23% and 2.51% and 7.25% | AUCInf [2, 6]: 82.5 ng·h/mL and 91.5 ng·h/mL and 189 ng·h/mL | AUC_% Ex Trap [2, 6]: 7.91% and 9.72% and 5.17% | AUClast ([2]; PO_A 20 mg/kg, last time point 6 h, Mean): 105 ng·mL·h | AUClast ([2]; PO_A 20 mg/kg, last time point 6 h, individual animals (1142, 1144, 1150, 1166), 20 mg/kg): 76.0 ng·mL·h and 81.6 ng·mL·h and 82.6 ng·mL·h and 180 ng·mL·h | AUC_% Ex Trap ([2]; PO_B (oral, Basis), Mean): 15.9% | AUClast ([2]; PO_B (oral, Basis), last time point 4 h, Mean): 64.7 ng·mL·h | half-life ([2]; Wistar, rat, plasma, iv, 5 mg/kg, IV 5 mg/kg, 1 mg/mL in DMSO/PEG 200/Saline 5/70/25, individual animals (1148, 1154, 1156, 1158)): 63.6 min | AUC(0-inf) [2, 7]: 795 ng·h/mL | half-life [2, 7]: 59.2 min | C0 ([2]; Wistar, rat, plasma, iv, 5 mg/kg, IV 5 mg/kg, Mean of 4 animals, read-out: C0): 2290 ng/mL | MRT ([2]; Wistar, rat, plasma, iv, 5 mg/kg, IV 5 mg/kg, Mean of 4 animals, read-out: MRT): 41.7 min | Tmax ([2]; Wistar, rat, plasma, iv, 5 mg/kg, IV 5 mg/kg, Mean of 4 animals, read-out: tmax): 7.5 min | AUC(0-inf) ([2]; Wistar, rat, plasma, iv, 5 mg/kg, IV 5 mg/kg, individual animals (1148, 1154, 1156, 1158)): 924 ng·h/mL | MRT ([2]; Wistar, rat, plasma, iv, 5 mg/kg, IV 5 mg/kg, individual animals (1148, 1154, 1156, 1158), read-out: MRT): 32.8 min | half-life ([2]; Wistar, rat, plasma, po, 20 mg/kg, PO_A 20 mg/kg, 7 mg/mL in Basis, Mean): 84.6 min | Cmax ([2]; Wistar, rat, plasma, po, 20 mg/kg, PO_A 20 mg/kg, 7 mg/mL in Basis, Mean, read-out: Cmax): 43.7 ng/mL | Tmax ([2]; Wistar, rat, plasma, po, 20 mg/kg, PO_A 20 mg/kg, 7 mg/mL in Basis, Mean, read-out: tmax): 52.8 min | half-life ([2]; Wistar, rat, plasma, po, 20 mg/kg, PO_A 20 mg/kg, 7 mg/mL in Basis, individual animals (1142, 1144, 1150, 1166)): 87 min | Tmax ([2]; Wistar, rat, plasma, po, 20 mg/kg, PO_A 20 mg/kg, 7 mg/mL in Basis, individual animals (1142, 1144, 1150, 1166), read-out: tmax): 60 min | AUC(0-inf) ([2]; Wistar, rat, plasma, po, 20 mg/kg, PO_A 20 mg/kg, Mean): 121 ng·h/mL | AUC(0-inf) [2, 8]: 76.9 ng·h/mL | half-life [2, 8]: 85.2 min | Cmax ([2]; Wistar, rat, plasma, po, 20 mg/kg, PO_B (oral, Basis), Mean, read-out: Cmax): 47.4 ng/mL | Tmax ([2]; Wistar, rat, plasma, po, 20 mg/kg, PO_B (oral, Basis), Mean, read-out: tmax): 30 min
